From patent publication US6417212B1, “Modulators of peroxisome proliferator activated receptors” (Eli Lilly & Company, priority 1999, dated 2002) come the findings set out here.

One test deals with huPPARα. Nature of the test: Cotransfection assay in CV-1 cells, huPPARα (GAL4 chimeric system). In kind it is cell-based, human. The note with it: luciferase reporter, relative to PPARα agonist reference molecule. On the technique in general: A reporter such as luciferase makes a cellular process visible.
In the next test the test system is Hu apoAI transgenic mice. Put plainly: Evaluation of triglyceride and cholesterol levels in Hu apoAI transgenic mice. The note with it: Mus musculus, 168 h, 30 mg/kg daily oral gavage for 7 days; for change in vivo at 30 mg/kg: pooled sera, read-out: % HDLc Increase (serum, FPLC area under the curve, over vehicle); for inhibition in vivo at 30 mg/kg: serum 3 hours after dosing on day 7, read-out: % Triglyceride Decrease (serum, over mice receiving vehicle). In kind it is in vivo. The procedure:
After an acclimation period of 2 weeks, animals were individually identified by ear notches, weighed, and assigned to groups based on body weight. Beginning the following morning, mice were dosed daily by oral gavage for 7 days using a 20 gauge, 11⁄2 curved disposable feeding needle (Popper & Sons). […] Prior to termination on day 7, mice were weighed and dosed. Three hours after dosing, animals were anesthetized by inhalation of isoflurane (2-4%; Abbott Laboratories, Chicago, Ill.) and blood obtained via cardiac puncture (0.7-1.0 ml). Whole blood was transferred to serum separator tubes (Vacutainer SST), chilled on ice, and permitted to clot. Serum was obtained after centrifugation at 4° C. and frozen until analysis for triglycerides, total cholesterol, compound levels, and serum lipoprotein profile by fast protein liquid chromatography (FPLC) coupled to an inline detection system. After sacrifice by cervical dislocation, the liver, heart and epididymal fat pads were excised and weighed. […] The percentage decrease in triglyceride serum levels in mice receiving a compound of the invention over mice receiving vehicle are reported in Table 2. […] The absorbance of the dye produced is linearly related to the analyte in the sample. The assays were further modified in our laboratory for use in a 96 well format. […] An additional aliquot of sample, pipetted to a third well and diluted in 200 μl water, provided a blank for each specimen. […] All samples from an experiment were assayed at the same time to minimize inter-assay variability. Serum lipoproteins were separated and cholesterol quantitated with an in-line detection system. […] The change in voltage corresponding to change in cholesterol concentration was plotted vs time and the area under the curve corresponding to the elution of VLDL, LDL and HDL was calculated using Perkin Elmer Turbochrome software.

The subject of another test is db/db mice. Put plainly: Evaluation of glucose levels in db/db mice. As to conditions: Mus musculus, 168 h; 30 mg/kg daily oral gavage for 7 days; 100% = glucose not different from lean values; read-out: Glucose Normalisation. In kind it is in vivo. Here is the method:
After an acclimation period of 2 weeks, animals were individually identified by ear notches, weighed, and bled via the tail vein for determination of initial glucose levels. Blood was collected (100 μl) from unfasted animals by wrapping each mouse in a towel, cutting the tip of the tail with a scalpel, and milking blood from the tail into a heparinized capillary tube (Fisher) balanced on the edge of the bench. Sample was discharged into a heparinized microtainer with gel separator (VWR) and retained on ice. Plasma was obtained after centrifugation at 4° C. and glucose measured immediately. Remaining plasma was frozen until the completion of the experiment, when glucose and triglycerides were assayed in all samples. Animals were grouped based on initial glucose levels and body weights. Beginning the following morning, mice were dosed daily by oral gavage for 7 days using a 20 gauge, 1½″ curved disposable feeding needle. […] On day 7, mice were weighed and bled (tail vein) 3 hours after dosing. Twenty-four hours after the 7th dose (i.e., day 8), animals were bled again (tail vein). Samples obtained from conscious animals on days 0, 7 and 8 were assayed for glucose. After the 24 hour bleed, animals were weighed and dosed for the final time. Three hours after dosing on day 8, animals were anesthetized by inhalation of isoflurane and blood obtained via cardiac puncture (0.5-0.7 ml). Whole blood was transferred to serum separator tubes, chilled on ice and permitted to clot. Serum was obtained after centrifugation at 4° C. and frozen until analysis for compound levels. After sacrifice by cervical dislocation, the liver, heart and epididymal fat pads were excised and weighed.
The absorbance of the dye produced is linearly related to the analyte in the sample. The assays were further modified in our laboratory for use in a 96 well format. […] An additional aliquot of sample, pipetted to a third well and diluted in 200 μl water, provided a blank for each specimen. […] Sample absorbances were compared to a standard curve (100-800, 10-500, and 100-400 mg/dl for glucose, triglycerides and total cholesterol, respectively). […] All samples from an experiment were assayed at the same time to minimize inter-assay variability.

As to `Cc1sc(-c2cccc(-c3ccccc3)c2)nc1CCOc1ccc(OC(C)(C)C(=O)O)cc1` [Example 46, 2-{4-[2-(2-Biphenyl-3-yl-5-methyl-thiazol-4-yl)-ethoxy]-phenoxy}-2-methyl-propionic acid], in the test with huPPARα, the “huPPARα CTF Efficacy” value came out at 122%. Moreover, in the test with Hu apoAI transgenic mice, the change in vivo at 30 mg/kg is 26% and the inhibition in vivo at 30 mg/kg is 16.4%. In addition, the inhibition in vivo at 30 mg/kg with db/db mice was determined as 29%.
On to `Cc1oc(-c2ccc(-c3c(F)cccc3F)cc2)nc1CCOc1ccc(OC(C)(C)C(=O)O)cc1` [Example 14, 2-(4-{2-[2-(2′,6′-Difluorobiphenyl-4-yl)-5-methyloxazol-4-yl]-ethoxy}-phenoxy)-2-methylpropionic acid], for which, in the test with huPPARα, the “huPPARα CTF Efficacy” value is 90%. Further, in the test on Hu apoAI transgenic mice, the change in vivo at 30 mg/kg stood at 66% and the inhibition in vivo at 30 mg/kg amounted to 67.5%. In addition, the inhibition in vivo at 30 mg/kg with db/db mice is 134%.
Taken in the same sequence, the figures for `Cc1oc(-c2ccc(-c3ccccc3)cc2)nc1CCOc1cccc(OC(C)(C)C(=O)O)c1` [Example 21, 2-{3-[2-(2-Biphenyl-4-yl-5-methyloxazol-4-yl)ethoxy]phenoxy}-2-methylpropionic acid] were 92%, 204%, 60.5% and 95%.
